Our source for the MIC values is US20200325177A1, “METHODS OF MAKING STREPTOGRAMIN COMPOSITIONS AND THE USE THEREOF” (THE REGENTS OF THE UNIVERSITY OF CALIFORNIA, priority 2017, published 2020).

What all share (type): cell-based
One assay deals with E. faecalis. Put plainly: MIC, Gram-positive bacteria: E. faecalis. As to conditions: Enterococcus faecalis, column 1, read-out: Minimal Inhibitory Concentration (MIC) E. faecalis.
In another assay the test system is E. faecium ATCC 35667. As to the kind of experiment: MIC, Gram-positive bacteria: E. faecium ATCC 35667. As to conditions: Enterococcus faecium, ATCC35667, column 2, read-out: Minimal Inhibitory Concentration (MIC) E. faecium ATCC 35667.
The subject of the next assay is E. faecium VRE; vanA. Put plainly: MIC, Gram-positive bacteria: E. faecium VRE; vanA. As to conditions: Enterococcus faecium, column 3, read-out: Minimal Inhibitory Concentration (MIC) E. faecium VRE.
Another assay has as its system S. aureus. Put plainly: MIC, Gram-positive bacteria: S. aureus (strains not named). As to conditions: Staphylococcus aureus, read-out: Minimal Inhibitory Concentration (MIC) S. aureus.
The test system of assay [1] is S. aureus Vat A streptogramin. Put plainly: MIC, Gram-positive bacteria: S. aureus Vat A streptogramin. As to conditions: Staphylococcus aureus; Gram-positive; column 5; read-out: Minimal Inhibitory Concentration (MIC) S. aureus Vat A streptogramin.
Assay [2] has as its system S. aureus Linezolid-resistant; cfr. Put plainly: MIC, Gram-positive bacteria: S. aureus Linezolid-resistant; cfr. As to conditions: Staphylococcus aureus, column 9, read-out: Minimal Inhibitory Concentration (MIC) S. aureus Linezolid-resistant.
The next assay concerns S. pneumoniae. As to the kind of experiment: MIC, Gram-positive bacteria: S. pneumoniae. As to conditions: Streptococcus pneumoniae, column 10, read-out: Minimal Inhibitory Concentration (MIC) S. pneumoniae.
Assay [3] concerns K. pneumoniae multidrug-resistant. As to the kind of experiment: MIC, Gram-negative bacteria: K. pneumoniae multidrug-resistant. As to conditions: Klebsiella pneumoniae, read-out: Minimal Inhibitory Concentration (MIC) K. pneumoniae multidrug-resistant.
The test system of the next assay is P. aeruginosa ATCC 27853. Put plainly: MIC, Gram-negative bacteria: P. aeruginosa ATCC 27853. As to conditions: Pseudomonas aeruginosa, ATCC27853, read-out: Minimal Inhibitory Concentration (MIC) P. aeruginosa ATCC 27853.
Assay [4] concerns P. aeruginosa MDR clinical isolate. As to the kind of experiment: MIC, Gram-negative bacteria: P. aeruginosa MDR clinical isolate. As to conditions: Pseudomonas aeruginosa, read-out: Minimal Inhibitory Concentration (MIC) P. aeruginosa MDR clinical isolate.
Another assay has as its system H. influenzae ATCC 49247. As to the kind of experiment: MIC, Gram-negative bacteria: H. influenzae ATCC 49247. As to conditions: Haemophilus influenzae, ATCC49247, read-out: Minimal Inhibitory Concentration (MIC) H. influenzae ATCC 49247.
A further assay has as its system Gram-Negative Organisms. As to the kind of experiment: microbe, parasite or virus in culture.
[5] abbreviates: first unnamed S. aureus column (c4).
Where [6] appears, read: fourth unnamed S. aureus column (c8).
The mark [7] stands for this setting: second unnamed S. aureus column (c6).
The mark [8] stands for this setting: third unnamed S. aureus column (c7).
Where [9] appears, read: Acinetobacter baumannii, ATCC19606, read-out: Minimal Inhibitory Concentration (MIC), A. baumannii ATCC 19606.
Where [10] appears, read: Escherichia coli, ATCC25922, read-out: Minimal Inhibitory Concentration (MIC), E. coli ATCC 25922.
Setting [11] is: Escherichia coli, read-out: Minimal Inhibitory Concentration (MIC), E. coli BAS2006, OMP C, OMP F.
Setting [12] is: Escherichia coli, read-out: Minimal Inhibitory Concentration (MIC), E. coli olC efflux defective.
The mark [13] stands for this setting: Escherichia coli, read-out: Minimal Inhibitory Concentration (MIC), E. coli permeability mutant BAS1314, IMP4213ZAB::TN10.
[14] abbreviates: Escherichia coli, read-out: Minimal Inhibitory Concentration (MIC), E. coli ΔompC768, KanR insert.
[15] abbreviates: Klebsiella pneumoniae, ATCC43816, read-out: Minimal Inhibitory Concentration (MIC), K. pneumoniae ATCC 43816.

In brackets after ≈: the same amount, converted by molar mass. Like-named read-outs stand apart in the source and are kept apart here. A value given as a limit tells only on which side of the number the result lay.

In the case of `CC1=C\[C@@H](O)C[C@@H](F)Cc2nc(cs2)C(=O)N2CCC[C@@H]2C(=O)O[C@H](C(C)C)[C@H](C)/C=C/C(=O)NC\C=C\1` [SA0110279], the MIC in the assay with E. faecalis is above 64 µg/mL; with E. faecium ATCC 35667, 0.5 µg/mL (≈ 0.913 µM); with E. faecium VRE; vanA, 1 µg/mL (≈ 1.83 µM); in the assay on S. aureus (setting [5]), 0.5 µg/mL (≈ 0.913 µM); with S. aureus (setting [6]), 0.5 µg/mL (≈ 0.913 µM); in the assay on S. aureus (setting [7]), 0.5 µg/mL (≈ 0.913 µM). For the same compound, the MIC in the assay with S. aureus (setting [8]) is 1 µg/mL (≈ 1.83 µM); in assay [1] it was 8 µg/mL (≈ 14.6 µM); in assay [2], above 64 µg/mL; in the assay on S. pneumoniae, 1 µg/mL (≈ 1.83 µM); in assay [3], above 64 µg/mL; with P. aeruginosa ATCC 27853 it was above 64 µg/mL. Also, the MIC is above 64 µg/mL in assay [4]; 0.25 µg/mL (≈ 0.456 µM) in the assay on H. influenzae ATCC 49247; above 64 µg/mL in the assay with Gram-Negative Organisms (setting [9]); 32 µg/mL (≈ 58.4 µM) in the assay with Gram-Negative Organisms (setting [10]); 0.25 µg/mL (≈ 0.456 µM) in the assay with Gram-Negative Organisms (setting [11]); 1 µg/mL (≈ 1.83 µM) in the assay with Gram-Negative Organisms (setting [12]). Further, the MIC with Gram-Negative Organisms (setting [13]) was below 0.06 µg/mL; in the assay with Gram-Negative Organisms (setting [14]) it was 32 µg/mL (≈ 58.4 µM); in the assay on Gram-Negative Organisms (setting [15]) it was above 64 µg/mL.

`CC1=C\[C@@H](O)CC(=O)Cc2nc(co2)C(=O)N2CCC[C@@H]2C(=O)O[C@H]([C@@H](C)COC(=O)Nc2ccn(C)n2)[C@H](C)/C=C/C(=O)NC\C=C\1` [SA0110113]: the MIC in the assay with E. faecalis was above 64 µg/mL; with E. faecium ATCC 35667, 64 µg/mL (≈ 96 µM); in the assay with E. faecium VRE; vanA it was above 64 µg/mL; in the assay with S. aureus (setting [5]) it was above 64 µg/mL; with S. aureus (setting [6]), above 64 µg/mL; in the assay on S. aureus (setting [7]) it was above 64 µg/mL. Besides, the MIC in the assay on S. aureus (setting [8]) was above 64 µg/mL; in assay [1], above 64 µg/mL; in assay [2], above 64 µg/mL; in the assay on S. pneumoniae, 8 µg/mL (≈ 12 µM); in assay [3] it was above 64 µg/mL; with P. aeruginosa ATCC 27853, above 64 µg/mL. For the same compound, the MIC in assay [4] was above 64 µg/mL; with H. influenzae ATCC 49247 it was 64 µg/mL (≈ 96 µM); in the assay on Gram-Negative Organisms (setting [9]) it was above 64 µg/mL; in the assay on Gram-Negative Organisms (setting [10]) it was above 64 µg/mL; with Gram-Negative Organisms (setting [11]), 64 µg/mL (≈ 96 µM); with Gram-Negative Organisms (setting [12]), 8 µg/mL (≈ 12 µM). The MIC in the assay on Gram-Negative Organisms (setting [13]) is 16 µg/mL (≈ 24 µM); in the assay on Gram-Negative Organisms (setting [15]) it was above 64 µg/mL.

As for `C[C@H]1COc2c(N3CCN(C)CC3)c(F)cc3c(=O)c(C(=O)O)cn1c23` [levofloxacin], the MIC was 1 µg/mL (≈ 2.77 µM) in the assay with E. faecalis; 4 µg/mL (≈ 11.1 µM) with E. faecium ATCC 35667; above 8 µg/mL with E. faecium VRE; vanA; 0.25 µg/mL (≈ 0.692 µM) in the assay with S. aureus (setting [5]); 2 µg/mL (≈ 5.53 µM) in the assay with S. aureus (setting [6]); 0.12 µg/mL (≈ 0.332 µM) in the assay with S. aureus (setting [7]). In addition, the MIC worked out at 0.25 µg/mL (≈ 0.692 µM) in the assay with S. aureus (setting [8]); 1 µg/mL (≈ 2.77 µM) in assay [1]; 8 µg/mL (≈ 22.1 µM) in assay [2]; 0.5 µg/mL (≈ 1.38 µM) with S. pneumoniae; 1 µg/mL (≈ 2.77 µM) in [3]; 2 µg/mL (≈ 5.53 µM) with P. aeruginosa ATCC 27853. Moreover, the MIC in assay [4] is above 8 µg/mL; in the assay on H. influenzae ATCC 49247, 0.03 µg/mL (≈ 0.083 µM); with Gram-Negative Organisms (setting [9]), 0.25 µg/mL (≈ 0.692 µM); in the assay on Gram-Negative Organisms (setting [10]) it was 0.015 µg/mL (≈ 0.0415 µM); in the assay on Gram-Negative Organisms (setting [14]), 0.015 µg/mL (≈ 0.0415 µM); with Gram-Negative Organisms (setting [15]) it was 0.03 µg/mL (≈ 0.083 µM).

Take `CC1=C\[C@@H](O)CC(=O)Cc2nc(co2)C(=O)N2CCC[C@@H]2C(=O)O[C@H]([C@H](C)CO)[C@H](C)/C=C/C(=O)NC\C=C\1` [SA0110170]: the MIC with E. faecalis, with E. faecium ATCC 35667, in the assay on E. faecium VRE; vanA, in the assay on S. aureus (setting [5]), in the assay with S. aureus (setting [6]) and in the assay on S. aureus (setting [7]) was above 64 µg/mL each time. For the same compound, the MIC with S. aureus (setting [8]) is above 64 µg/mL; in [1], above 64 µg/mL; in assay [2], above 64 µg/mL; in the assay on S. pneumoniae, 64 µg/mL (≈ 118 µM); in assay [3], above 64 µg/mL; in the assay on P. aeruginosa ATCC 27853, above 64 µg/mL. The MIC in assay [4] was above 64 µg/mL; with H. influenzae ATCC 49247, 32 µg/mL (≈ 58.9 µM); with Gram-Negative Organisms (setting [9]), above 64 µg/mL; in the assay on Gram-Negative Organisms (setting [10]) it was above 64 µg/mL; with Gram-Negative Organisms (setting [11]) it was above 64 µg/mL; with Gram-Negative Organisms (setting [12]), 32 µg/mL (≈ 58.9 µM). In addition, the figures for the MIC in the assay on Gram-Negative Organisms (setting [13]), in the assay with Gram-Negative Organisms (setting [14]) and in the assay on Gram-Negative Organisms (setting [15]) were 32 µg/mL (≈ 58.9 µM), above 64 µg/mL and above 64 µg/mL, respectively.
